Like-named read-outs stand apart in the source and are kept apart here.
Assays:
[1] = Conventional dosage form LPV/RTV, oral administration, non-human primates (Example 4); type: in vivo; settings: non-human primates vs humans
Text: AUC (area under the curve, or total drug exposure) of the active drug lopinavir was dose normalized across species and route of administration by dividing the total exposure by the dose administered (μg*hr*kg/(mL*mg)). Dashes represent unreported data. Apparent half-life is reported in hours.

[2] = Human, IV; cited from earlier work
[3] = Non-human Primates, SC; cited from earlier work

total AUC of lopinavir (PO) in non-human primates, fold lower than humans [1] [fold]	Compound	AUC (dose normalized) [2] [µg·kg·h/mL/mg]	T1/2, app [2] [h]	AUC (dose normalized) [3] [µg·kg·h/mL/mg]	T1/2, app [3] [h]
10	Cc1cccc(C)c1OCC(=O)N[C@@H](Cc1ccccc1)[C@@H](O)C[C@H](Cc1ccccc1)NC(=O)[C@H](C(C)C)N1CCCNC1=O [lopinavir]				
	C[C@H](Cn1cnc2c(N)ncnc21)OCP(=O)(O)O [TFV, tenofovir]	5.6	6.6	2.1	8
